Here are results for two compounds from patent US7202261B2, “Calcilytic compounds” (NPS Pharmaceuticals, Inc., priority 1996, dated 2007).

Structures can show the parent of a compound that is named as a salt.

The experiment deals with dissociated bovine parathyroid cells. Description: Stimulation of PTH secretion. Particulars: Bos taurus, 0.5 h, 0.5 mM Ca2+, 30 minutes. Type of experiment: cell-based. As to the method:
This example illustrates the ability of different calcilytic compounds to exert a biological effect on PTH secretion. PTH secretion was determined using dissociated bovine parathyroid cells as described below for Compounds 32, 33, and 38. […] Stimulation of PTH secretion was assayed as follows: Parathyroid cell buffer (PCB) contains (mM): NaCl, 126; KCl, 4; MgSO4, 1; K2HPO4/KH2PO4, 0.7; Na-Hepes, pH 7.45, and variable amounts of CaCl2 as specified (reagent grade). PCB was typically supplemented with bovine serum albumin (BSA fraction V; ICN Biomedicals, Inc., Costa Mesa, Calif.; catalog #81-003) and 1 mg/mL of D-glucose (reagent grade) as indicated. Percoll purification buffer was prepared immediately before use by mixing 8 mL of Percoll (Pharmacia LKB, Alameda, Calif.; catalog #17-0891-01) and 7 mL of a twice-concentrated PCB solution without phosphate and containing 2 mM CaCl2. Parathyroid glands were obtained from calves within minutes of slaughter at an abattoir and shipped via overnight express on ice in PCB containing 1.25 mM CaCl2. The glands were trimmed and minced in ice-cold PCB containing 1.25 mM CaCl2, 1 mg/mL of D-glucose, and 2% BSA. […]

`COc1ccc(CC(C)(C)NC[C@@H](O)COc2ccccc2)cc1` (single isomer, unassigned) [Compound 32, (R) or (S)—N-(2-Hydroxy-3-phenoxypropyl)-1,1-dimethyl-2-(4-methoxyphenyl)ethylamine Hydrochloride]: the EC50 (usually the concentration that produces a half-maximal response) was less than 10 µM.
With `COc1ccc(CC(C)(C)NCC(O)COc2cccc(OC)c2)cc1` (centres unmarked) [Compound 38, N-[2-Hydroxy-3-(3-methoxyphenoxy)propyl]-1,1-dimethyl-2-(4-methoxyphenyl)ethylamine Hydrochloride], the EC50 was less than 10 µM.
